Common to all, as to format: functional
In test [1] the test system is Pontederia vaginalis. Kind of test: Herbicidal activity against Monochoria vaginalis assessed as killing at 1 g/a at 25 degC measured after 3 weeks.
A short description of test [2]: Herbicidal activity against annual broad-leaf weeds assessed as killing at 10 g/a at 25 degC measured after 3 weeks.
For test [3], the system named is Cyperus difformis. As to the kind of experiment: Herbicidal activity against Cyperus difformis assessed as killing at 10 g/a at 25 degC measured after 3 weeks.
Test [4] has as its system Schoenoplectiella juncoides. As to the kind of experiment: Herbicidal activity against Schoenoplectiella juncoides assessed as killing at 10 g/a at 25 degC measured after 3 weeks.
A short description of test [5]: Herbicidal activity against annual broad-leaf weeds assessed as killing at 1 g/a at 25 degC measured after 3 weeks.
Test [6] deals with Cyperus difformis. Kind of test: Herbicidal activity against Cyperus difformis assessed as killing at 1 g/a at 25 degC measured after 3 weeks.
Test [7] concerns Echinochloa oryzicola. As to the kind of experiment: Herbicidal activity against Echinochloa oryzicola assessed as killing at 1 g/a at 25 degC measured after 3 weeks.
Test [8] deals with Pontederia vaginalis. As to the kind of experiment: Herbicidal activity against Monochoria vaginalis assessed as killing at 10 g/a at 25 degC measured after 3 weeks.
The test system of test [9] is Echinochloa oryzicola. Kind of test: Herbicidal activity against Echinochloa oryzicola assessed as killing at 10 g/a at 25 degC measured after 3 weeks.
In test [10] the test system is Schoenoplectiella juncoides. Kind of test: Herbicidal activity against Schoenoplectiella juncoides assessed as killing at 1 g/a at 25 degC measured after 3 weeks.

Data on 20 molecules can be found in ChEMBL document CHEMBL3046648, “Herbicidally Active N-(1-Arylethenyl)-2-chloroacetamides Bearing an Alkyloxyalkyl Moiety” (1991).

As to `C#CCOCCN(C(=O)CCl)C(=C(C)C)c1ccccc1`, the Activity (in the test on Pontederia vaginalis [1]; in [2]; in the test with Cyperus difformis [3]; in test [4]; in [5]; in the test on Cyperus difformis [6]) was 100% each time. Besides, the Activity worked out at 100% in the test with Echinochloa oryzicola [7], 100% with Pontederia vaginalis [8], 100% in the test with Echinochloa oryzicola [9] and 80% in test [10].
For the molecule `COCCN(C(=O)CCl)C(=C(C)C)c1ccccc1C`, the Activity is 0% with Pontederia vaginalis [1]; 80% in test [2]; 100% with Cyperus difformis [3]; 100% in test [4]; 80% in test [5]; 80% in the test on Cyperus difformis [6]. Besides, the Activity in the test on Echinochloa oryzicola [7] was 80%; in the test on Pontederia vaginalis [8], 80%; in the test with Echinochloa oryzicola [9], 100%; in test [10], 0%.
On to `COCCN(C(=O)CCl)C(=C(C)C)c1ccc(OC)cc1`, for which the Activity in the test on Pontederia vaginalis [1] was determined as 80%; in test [2] it was 100%; with Cyperus difformis [3], 100%; in test [4] it was 100%; in test [5] it was 0%; in the test on Cyperus difformis [6], 100%. Also, the Activity in the test with Echinochloa oryzicola [7] is on record as 80%; in the test on Pontederia vaginalis [8], 100%; with Echinochloa oryzicola [9] it was 100%; in test [10] it was 80%.
With `COCCN(C(=O)CCl)C(=C(C)C)c1cccc(Oc2ccccc2)c1`, the Activity turned out to be 0% in the test with Pontederia vaginalis [1]; 100% in test [2]; 100% in the test on Cyperus difformis [3]; 60% in [4]; 40% in test [5]; 80% in the test on Cyperus difformis [6]. Besides, the Activity was 100% in the test with Echinochloa oryzicola [7], 100% in the test with Pontederia vaginalis [8], 100% in the test on Echinochloa oryzicola [9] and 60% in test [10].
Take `CCC=C(c1ccccc1)N(CCOC)C(=O)CCl`: the Activity with Pontederia vaginalis [1] worked out at 0%; in [2] it was 80%; in the test with Cyperus difformis [3], 100%; in [4] it was 100%; in test [5], 0%; in the test on Cyperus difformis [6], 80%. For the same molecule, the Activity with Echinochloa oryzicola [7] came to 60%; in the test on Pontederia vaginalis [8], 100%; in the test with Echinochloa oryzicola [9], 100%; in [10], 0%.
As to `COCCN(C(=O)CCl)C(=C(C)C)c1cc(C)ccc1C`, the Activity worked out at 40% in the test with Pontederia vaginalis [1]; 100% in test [2]; 100% with Cyperus difformis [3]; 100% in test [4]; 20% in test [5]; 80% in the test on Cyperus difformis [6]. For the same molecule, the Activity with Echinochloa oryzicola [7] was determined as 100%; in the test on Pontederia vaginalis [8] it was 100%; in the test with Echinochloa oryzicola [9], 100%; in test [10] it was 80%.
Take `COCCCN(C(=O)CCl)C(=C(C)C)c1ccccc1`: the Activity in the test with Pontederia vaginalis [1] is 100%; in test [2], 100%; in the test with Cyperus difformis [3], 100%; in test [4], 100%; in test [5] it was 0%; in the test with Cyperus difformis [6], 60%. Also, the Activity in the test with Echinochloa oryzicola [7] is 60%; in the test on Pontederia vaginalis [8], 100%; in the test on Echinochloa oryzicola [9] it was 100%; in test [10], 40%.
Take `COCCN(C(=O)CCl)C(=C(C)C)c1ccc(Br)s1`: the Activity in the test with Pontederia vaginalis [1] was 60%; in test [2], 100%; in the test with Cyperus difformis [3] it was 100%; in test [4], 100%; in [5], 80%; in the test with Cyperus difformis [6] it was 80%. For the same molecule, the Activity with Echinochloa oryzicola [7] worked out at 100%; in the test with Pontederia vaginalis [8] it was 100%; in the test with Echinochloa oryzicola [9], 100%; in test [10], 60%.
Take `COCCN(C(=O)CCl)C(=C(C)C)c1ccc(Cl)cc1`: the Activity (with Pontederia vaginalis [1]; in test [2]; with Cyperus difformis [3]; in test [4]; in [5]; in the test with Cyperus difformis [6]) was 100% each time. In addition, the Activity with Echinochloa oryzicola [7] was found to be 100%; in the test with Pontederia vaginalis [8], 100%; in the test with Echinochloa oryzicola [9], 100%; in test [10], 80%.
Take `COCCN(C(=O)CCl)C(=C(C)C)c1ccc(Br)cc1`: the Activity in the test on Pontederia vaginalis [1] turned out to be 100%; in [2] it was 100%; in the test on Cyperus difformis [3] it was 100%; in test [4], 100%; in test [5] it was 80%; with Cyperus difformis [6] it was 100%. Also, the Activity in the test on Echinochloa oryzicola [7] is 100%; in the test on Pontederia vaginalis [8] it was 100%; with Echinochloa oryzicola [9], 100%; in test [10], 80%.
Consider `COCCN(C(=O)CCl)C(=C(C)C)c1ccc(Oc2ccccc2)cc1`, for which the Activity (with Pontederia vaginalis [1]; in [2]; with Cyperus difformis [3]; in test [4]; in test [5]; with Cyperus difformis [6]) was 100% in each case. Besides, the Activity is 100% in the test with Echinochloa oryzicola [7], 100% with Pontederia vaginalis [8], 100% with Echinochloa oryzicola [9] and 60% in test [10].
Take `COCCN(C(=O)CCl)C(=C(C)C)c1ccc(C(C)(C)C)cc1`: the Activity with Pontederia vaginalis [1] was found to be 60%; in [2] it was 100%; in the test with Cyperus difformis [3], 100%; in [4], 100%; in test [5], 80%; in the test on Cyperus difformis [6] it was 60%. In addition, the Activity with Echinochloa oryzicola [7] came out at 80%; in the test with Pontederia vaginalis [8], 100%; in the test with Echinochloa oryzicola [9], 100%; in [10], 60%.
`COCCN(C(=O)CCl)C(=C(C)C)c1ccccc1Cl`: the Activity in the test with Pontederia vaginalis [1] is 0%; in test [2], 100%; with Cyperus difformis [3], 100%; in test [4], 100%; in [5], 0%; in the test on Cyperus difformis [6], 100%. Moreover, the Activity with Echinochloa oryzicola [7] was found to be 80%; with Pontederia vaginalis [8], 100%; with Echinochloa oryzicola [9], 100%; in [10], 80%.
For `COCCN(C(=O)CCl)C(=C(C)C)c1ccc(SC)cc1`, the Activity worked out at 0% with Pontederia vaginalis [1]; 100% in test [2]; 100% in the test on Cyperus difformis [3]; 100% in test [4]; 100% in test [5]; 60% in the test with Cyperus difformis [6]. For the same molecule, the Activity worked out at 40% in the test with Echinochloa oryzicola [7], 100% in the test with Pontederia vaginalis [8], 100% with Echinochloa oryzicola [9] and 0% in test [10].
Turning to `COCCN(C(=O)CCl)C(=C(C)C)c1ccc(C)cc1`, the Activity with Pontederia vaginalis [1] amounted to 60%; in [2], 100%; in the test on Cyperus difformis [3], 100%; in [4], 100%; in [5], 80%; in the test with Cyperus difformis [6], 100%. Further, the Activity with Echinochloa oryzicola [7] was 80%; with Pontederia vaginalis [8], 100%; in the test on Echinochloa oryzicola [9] it was 100%; in [10] it was 80%.
On to `CCOCCCN(C(=O)CCl)C(=C(C)C)c1ccccc1`, for which the Activity worked out at 0% in the test with Pontederia vaginalis [1]; 100% in test [2]; 100% in the test on Cyperus difformis [3]; 100% in test [4]; 40% in test [5]; 60% in the test on Cyperus difformis [6]. Besides, the Activity was determined as 80% in the test with Echinochloa oryzicola [7], 100% with Pontederia vaginalis [8], 100% in the test with Echinochloa oryzicola [9] and 40% in test [10].
In the case of `CCC(CC)=C(c1ccccc1)N(CCOC)C(=O)CCl`, the Activity was 0% with Pontederia vaginalis [1]; 80% in [2]; 100% with Cyperus difformis [3]; 100% in [4]; 0% in test [5]; 40% with Cyperus difformis [6]. For the same molecule, the Activity with Echinochloa oryzicola [7] was determined as 80%; in the test with Pontederia vaginalis [8], 100%; with Echinochloa oryzicola [9], 100%; in [10], 0%.
Regarding `C=CCOCC(C)N(C(=O)CCl)C(=C(C)C)c1ccccc1` (stereo not given), the Activity with Pontederia vaginalis [1] was determined as 40%; in [2] it was 100%; in the test on Cyperus difformis [3], 100%; in [4], 100%; in test [5] it was 100%; in the test on Cyperus difformis [6] it was 60%. In addition, the Activity in the test with Echinochloa oryzicola [7] came to 40%; in the test on Pontederia vaginalis [8] it was 100%; in the test with Echinochloa oryzicola [9] it was 100%; in test [10], 60%.
Turning to `COCCN(C(=O)CCl)C(=C(C)C)c1ccc(C)cc1C`, the Activity in the test with Pontederia vaginalis [1] turned out to be 0%; in test [2], 80%; in the test with Cyperus difformis [3] it was 100%; in test [4], 100%; in test [5], 0%; with Cyperus difformis [6], 80%. In addition, the Activity is given as 60% in the test on Echinochloa oryzicola [7], 100% in the test on Pontederia vaginalis [8], 100% with Echinochloa oryzicola [9] and 80% in test [10].
Turning to `C=CCOCCN(C(=O)CCl)C(=C(C)C)c1ccccc1`, the Activity (in the test with Pontederia vaginalis [1]; in test [2]; in the test on Cyperus difformis [3]; in test [4]; in [5]; in the test on Cyperus difformis [6]) was 100% in each case. In addition, the Activity (in the test on Echinochloa oryzicola [7]; in the test with Pontederia vaginalis [8]; in the test with Echinochloa oryzicola [9]; in [10]) was 100% in each case.
